18 molecules from patent US5708032A, “Fluoroalkenyl compounds and their use as pest control agents” (Monsanto Company, priority 1995, dated 1998) can be followed below.

Structures are written as SMILES. Where “and” joins values, the source holds several entries; their conditions need not be identical. Identical values can stand only once. Counter-ions that a name gives are not always drawn. Like-named read-outs stand apart in the source and are kept apart here.

For the experiment, the system named is root knot nematodes (Meloidogyne incognita). Description: systemic control of root knot nematodes on tomato roots by foliar application. Format: in vivo. The note with it: for pest or weed control at 100 ppm / pest or weed control at 500 ppm: Meloidogyne incognita, 504 h, read-out: percent control of root disease relative to non-treated plants. The method, then: Compounds of the present invention, prepared as described above, were tested for effectiveness in controlling root knot nematodes (Meloidogyne incognita) on tomato roots when applied to foliage of young plants.
Tomato plants, cv `Rutgers`, were grown one per pot in six an square plastic pots containing a mixture of equal parts fine sand, coarse sand, silt loam soil, and commercial potting medium. A 10,000 ppm stock solution of each test compound was prepared in either water or acetone. Samples were then diluted with additional water to give final test concentrations of 500 and 100 ppm. Tween®20 was added for a final concentration of 0.5% v/v in all test samples.
When the tomato plants were 18-21 days old the test solutions were sprayed onto the leaves and stems. Each rate of each test compound was applied to three tomato plants using four ml of spray solution per plant. One day after spraying the plants were inoculated with mature root knot nematode eggs containing J1 larvae, with 8,000 eggs per plant applied in 5 ml of water on soil at the stem base. Plants then were incubated in a growth chamber at 27° C. with all replicate pots randomized throughout the chamber. During the two weeks immediately following application of the test compounds all plants received sub-irrigation and the foliage was kept dry.
After three weeks incubation the plant roots were washed and nematode disease severity was assessed. Each root system was rated individually and a visual estimate of the percent of the root system afflicted with nematode galling was determined. Values of 0, 1, 5, 10, 20, 30, 40, 50, 60, 70, 80, or 100 percent galled roots were assigned to each plant. […] For each treatment (compound & rate) a standard deviation was calculated for the mean of the three replicate plants. Percent disease control relative to non-treated plants also was calculated.

Setting [1] is: 100 ppm foliar spray, tomato cv Rutgers, 3 weeks, mean of three plants, non-treated generally 60% or greater.
Setting [2] is: 500 ppm foliar spray, tomato cv Rutgers, 3 weeks, mean of three plants, non-treated generally 60% or greater.
The mark [3] stands for this setting: 100 ppm foliar spray, tomato cv Rutgers, 3 weeks, * = no biological activity at the rate tested.
[4] abbreviates: 500 ppm foliar spray, tomato cv Rutgers, 3 weeks, * = no biological activity at the rate tested.

For `C[Si](C)(C)CCCOC(=O)CC(F)=C(F)F` [Example 14, 3-BUTENOIC ACID, 3,4,4-TRIFLUORO-, 3-(TRIMETHYLSILYL)PROPYL ESTER], for the setting “foliar”, the pest or weed control at 100 ppm is 4% and the pest or weed control at 500 ppm amounted to 8%. In addition, under “in vivo”, the “Mean percent root disease (galled)” value was 80% and 83%.

As for `O=C(CC(F)=C(F)F)n1cccn1` [Example 12, 1H-PYRAZOLE, 1-(3,4,4-TRIFLUORO-1-OXO-3- BUTENYL)-], the “Mean percent root disease (galled)” value is, setting by setting: under setting [1], 80%; under setting [2], 43%. Besides, the pest or weed control at 100 ppm under setting [3] is 0%. In addition, the pest or weed control at 500 ppm under setting [4] is 46%.

`C[Si](C)(C)CCSC(=O)CC(F)=C(F)F` [Example 15, 3-BU[…], 3,4,4-TRIFLUORO-, S-[2-(TRIMETHYLSILYL)ETHYL] ESTER]: under “foliar”, the pest or weed control at 100 ppm stood at 2% and the pest or weed control at 500 ppm was -3%. In addition, the “Mean percent root disease (galled)” value (in vivo) is 90% and 85%.

As to `O=C(CC(F)=C(F)F)Nc1ccc(S(=O)(=O)O)cc1` [Example 7, BENZENESULFONIC ACID, 4-[(3,4,4-TRIFLUORO-1-OXO-3- BUTENYL)AMINO]-], the “Mean percent root disease (galled)” value is, setting by setting: under setting [1], 23%; under setting [2], 17%. In addition, the pest or weed control at 100 ppm under setting [3] worked out at 56%. Moreover, the pest or weed control at 500 ppm under setting [4] amounted to 69%.

As to `N#CCNC(=O)CC(F)=C(F)F` [Example 2, 3-BUTENAMIDE, N-CYANOMETHYL)-3,4,4- TRIFLUORO-], the “Mean percent root disease (galled)” value came out at 73% under setting [1] and 67% under setting [2]. Under setting [3], the pest or weed control at 100 ppm was found to be 8%. In addition, the pest or weed control at 500 ppm under setting [4] was 17%.

For the molecule `COc1cc(OC)nc(NC(=O)CC(F)=C(F)F)n1` [Example 5, 3-BUTENAMIDE, N-(4,6-DIMETHOXY-2-PYRIMIDINYL)- 3,4,4-TRIFLUORO-], the “Mean percent root disease (galled)” value is on record as 90% under setting [1] and 30% under setting [2]. Also, the pest or weed control at 100 ppm under setting [3] is -3%. Under setting [4], the pest or weed control at 500 ppm was 66%.

As to `CS(=O)(=O)NC(=O)CC(F)=C(F)F` [Example 8, 3-BUTENAMIDE, 3,4,4-TRIFLUORO-N- (METHYLSULFONYL)-], the “Mean percent root disease (galled)” value under setting [1] turned out to be 80% and the “Mean percent root disease (galled)” value under setting [2] stood at 5%. For the same molecule, under setting [3], the pest or weed control at 100 ppm stood at 0%. Also, the pest or weed control at 500 ppm under setting [4] is 94%.

In the case of `O=P(O)(O)CC(F)=C(F)F` [Example 18, PHOSPHONIC ACID, (2,3,3-TRIFLUORO-2-PROPENYL)-], under “foliar”, the pest or weed control at 100 ppm was -5% and the pest or weed control at 500 ppm came to 0%. Further, the “Mean percent root disease (galled)” value (in vivo) is 73% and 77%.

On to `NC(=O)NNC(=O)CC(F)=C(F)F` [Example 4, 3-BUTENOIC ACID, 3,4,4-TRIFLUORO-, 2-(AMINOCARBONYL)HYDRAZIDE], for which the “Mean percent root disease (galled)” value came out at 80% under setting [1] and 73% under setting [2]. Besides, under setting [3], the pest or weed control at 100 ppm turned out to be 0%. In addition, under setting [4], the pest or weed control at 500 ppm amounted to 8%.

Take `O=C(CC(F)=C(F)F)Sc1ncccn1` [Example 16, 3,-BUTENETHIOIC ACID, 3,4,4-TRIFLUORO-, S-2-PYRIMIDINYL ESTER]: the “Mean percent root disease (galled)” value reads like this: under setting [1], 80%; under setting [2], 50%. Moreover, the pest or weed control at 100 ppm under setting [3] amounted to 0%. Also, the pest or weed control at 500 ppm under setting [4] stood at 38%.

As for `Cc1ccccc1C(=O)CC(F)=C(F)F` [Example 20, 3-BUTEN-1-ONE, 3,4,4-TRIFLUORO-1-(2-METHYL PHENYL)-], the “Mean percent root disease (galled)” value was 53% under setting [1] and 47% under setting [2]. Further, under setting [3], the pest or weed control at 100 ppm was 0%. Also, under setting [4], the pest or weed control at 500 ppm was found to be 12%.

Regarding `O=C(CC(F)=C(F)F)NS(=O)(=O)C(F)(F)F` [Example 9, 3-BUTENAMIDE, 3,4,4-TRIFLUORO-, N-[(TRIFLUOROMETHYL)SULFONYL]-], the “Mean percent root disease (galled)” value is listed as 80% under setting [1] and 5% under setting [2]. Further, under setting [3], the pest or weed control at 100 ppm is 0%. The pest or weed control at 500 ppm under setting [4] worked out at 94%.

For the molecule `FC(F)=C(F)CC(=S)Nc1ccccc1` [Example 13, 3-BUTENETHIOAMIDE, 3,4,4-TRIFLUORO-N-PHENYL-], the “Mean percent root disease (galled)” value is reported as 40% under setting [1] and 27% under setting [2]. Also, the pest or weed control at 100 ppm under setting [3] turned out to be 25%. Further, the pest or weed control at 500 ppm under setting [4] came to 50%.

`O=C(CC(F)=C(F)F)n1cncn1` [Example 11, 1H-1,2,4-TRIAZOLE, 1-(3,4,4-TRIFLUORO-1-OXO-3- BUTENYL)-]: the “Mean percent root disease (galled)” value was found to be 80% under setting [1] and 7% under setting [2]. Further, under setting [3], the pest or weed control at 100 ppm turned out to be 0%. In addition, the pest or weed control at 500 ppm under setting [4] is 92%.

As for `C[Si](C)(C)CN(Cc1ccccc1)C(=O)CC(F)=C(F)F` [Example 6, 3-BUTENAMIDE, 3,4,4-TRIFLUORO-N-(PHENYLMETHYL)- N-[(TRIMETHYLSILYL) METHYL]-], for the setting “foliar”, the pest or weed control at 100 ppm came out at 2% and the pest or weed control at 500 ppm worked out at 0%. Also, for the setting “in vivo”, the “Mean percent root disease (galled)” value was 87% and 85%.

`CONC(=O)CC(F)=C(F)F` [Example 3, 3-BUTENAMIDE, 3,4,4-TRIFLUORO-N-METHOXY-]: the “Mean percent root disease (galled)” value is on record as 77% under setting [1] and 70% under setting [2]. In addition, the pest or weed control at 100 ppm under setting [3] came out at 12%. In addition, the pest or weed control at 500 ppm under setting [4] was 20%.

As to `O=C(CC(F)=C(F)F)NCS(=O)(=O)O` [Example 10, METHANESULFONIC ACID, [(3,4,4-TRIFLUORO-1-OXO-3- BUTENYL)AMINO]-], the “Mean percent root disease (galled)” value runs as follows: under setting [1], 20%; under setting [2], 27%. Further, the pest or weed control at 100 ppm under setting [3] came to 62%. Besides, the pest or weed control at 500 ppm under setting [4] turned out to be 50%.

As to `O=P(O)(CC(F)=C(F)F)c1ccccc1` [Example 19, PHOSPHINIC ACID, PHENYL(2,3,3-TRIFLUORO-2- PROPENYL)-, SODIUM SALT], the “Mean percent root disease (galled)” value turned out to be 73% under setting [1] and 73% under setting [2]. The pest or weed control at 100 ppm under setting [3] was 0%. The pest or weed control at 500 ppm under setting [4] amounted to 0%.
